Test results published in ChEMBL document CHEMBL4196128 (ACS Med Chem Lett, 2018).

Assays:
[1] = target: Mitogen-activated protein kinase 3 (Homo sapiens, UniProt P27361); assay: Inhibition of ERK1 (unknown origin) using peptide substrate measured after 45 mins by IMAP assay
[2] = target: Mitogen-activated protein kinase 1 (Homo sapiens, UniProt P28482); assay: Inhibition of ERK2 (unknown origin) using peptide substrate measured after 45 mins by IMAP assay
HT-29 = assay: Antiproliferative activity against human HT-29 cells harboring BRAF V600E/D mutant measured after 4 days; type: functional, cell-based; details: HT-29, 96 h
hERG (KCNH2) [3] = target: T1, hERG (KCNH2) (Homo sapiens, UniProt Q12809); assay: Inhibition of human ERG at 5 mg/ml by binding assay relative to control; parameters: dose or concentration left out as unconfirmed
T1 sequence (Q12809 whole entry): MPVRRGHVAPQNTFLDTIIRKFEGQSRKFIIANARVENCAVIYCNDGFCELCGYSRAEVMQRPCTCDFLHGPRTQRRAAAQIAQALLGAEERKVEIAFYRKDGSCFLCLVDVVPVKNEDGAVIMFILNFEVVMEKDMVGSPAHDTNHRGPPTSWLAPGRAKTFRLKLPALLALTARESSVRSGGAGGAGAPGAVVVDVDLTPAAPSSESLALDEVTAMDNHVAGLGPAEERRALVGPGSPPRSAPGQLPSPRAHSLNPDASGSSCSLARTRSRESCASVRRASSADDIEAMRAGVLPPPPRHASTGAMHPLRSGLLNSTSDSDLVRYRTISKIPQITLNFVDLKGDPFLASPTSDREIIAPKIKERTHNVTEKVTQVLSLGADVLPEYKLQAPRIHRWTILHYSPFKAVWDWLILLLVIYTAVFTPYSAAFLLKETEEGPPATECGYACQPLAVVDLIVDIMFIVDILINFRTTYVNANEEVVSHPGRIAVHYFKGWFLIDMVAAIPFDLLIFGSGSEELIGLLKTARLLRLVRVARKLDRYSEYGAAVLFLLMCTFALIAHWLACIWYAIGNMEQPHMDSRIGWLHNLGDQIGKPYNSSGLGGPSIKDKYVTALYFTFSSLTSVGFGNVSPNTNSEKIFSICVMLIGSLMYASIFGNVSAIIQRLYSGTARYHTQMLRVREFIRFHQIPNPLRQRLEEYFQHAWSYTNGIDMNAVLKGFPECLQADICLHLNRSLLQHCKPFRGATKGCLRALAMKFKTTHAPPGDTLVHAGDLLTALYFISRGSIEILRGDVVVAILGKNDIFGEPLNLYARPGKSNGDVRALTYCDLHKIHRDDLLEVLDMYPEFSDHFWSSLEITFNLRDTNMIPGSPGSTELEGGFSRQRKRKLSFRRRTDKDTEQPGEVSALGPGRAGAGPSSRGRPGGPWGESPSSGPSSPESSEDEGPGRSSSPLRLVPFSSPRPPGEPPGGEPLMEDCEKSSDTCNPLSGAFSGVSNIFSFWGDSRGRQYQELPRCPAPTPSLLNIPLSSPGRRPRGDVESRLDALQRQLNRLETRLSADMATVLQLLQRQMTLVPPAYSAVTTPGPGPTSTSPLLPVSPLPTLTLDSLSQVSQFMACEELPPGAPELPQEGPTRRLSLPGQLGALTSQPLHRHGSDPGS

hERG (KCNH2) [4] = target: T1, hERG (KCNH2); assay: Inhibition of human ERG at 1.5 mg/ml by binding assay relative to control; parameters: dose or concentration left out as unconfirmed
COLO 205 = assay: Antiproliferative activity against human COLO205 cells harboring BRAF V600E/D mutant measured after 4 days; type: functional, cell-based; details: COLO 205, 96 h
hERG (KCNH2) [5] = target: T1, hERG (KCNH2); assay: Inhibition of human ERG at 10 uM by IonWork assay relative to control
hERG (KCNH2) [6] = target: T1, hERG (KCNH2); assay: Inhibition of human ERG at 1 uM by IonWork assay relative to control
[7] = AUC in rat at 10 mg/kg; type: ADME, organism-based; details: in vivo
Cytochrome P450 3A4 = Cytochrome P450 3A4 (Homo sapiens, UniProt P08684); assay: Inhibition of CYP3A4 (unknown origin) preincubated followed by substrate addition; type: ADME
Cytochrome P450 3A4, sequence (P08684 whole entry): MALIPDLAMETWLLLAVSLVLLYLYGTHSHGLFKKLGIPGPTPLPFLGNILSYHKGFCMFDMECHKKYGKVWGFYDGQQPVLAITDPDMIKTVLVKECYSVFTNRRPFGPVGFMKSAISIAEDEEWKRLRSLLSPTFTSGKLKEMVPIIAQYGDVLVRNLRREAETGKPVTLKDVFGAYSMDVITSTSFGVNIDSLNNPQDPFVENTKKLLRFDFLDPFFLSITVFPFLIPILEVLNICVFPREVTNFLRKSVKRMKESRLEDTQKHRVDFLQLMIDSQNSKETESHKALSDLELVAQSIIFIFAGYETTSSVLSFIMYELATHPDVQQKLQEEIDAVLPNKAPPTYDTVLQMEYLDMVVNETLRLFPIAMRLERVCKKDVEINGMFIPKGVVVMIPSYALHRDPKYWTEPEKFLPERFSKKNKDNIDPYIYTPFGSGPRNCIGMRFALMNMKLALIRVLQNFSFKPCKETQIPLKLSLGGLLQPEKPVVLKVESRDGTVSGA

[8] = Drug metabolism in bile duct-cannulated rat plasma assessed as glutathione conjugation at 10 mg/kg, iv by LC/ESI-MS/MS analysis; type: ADME, organism-based; details: in vivo
[9] = Drug metabolism in bile duct-cannulated rat bile assessed as oxidative dealkylation by measuring amide cleavage at 10 mg/kg, iv by LC/ESI-MS/MS analysis; type: ADME, organism-based; details: in vivo
[10] = Drug metabolism in bile duct-cannulated rat plasma assessed as oxidative dealkylation by measuring amide cleavage at 10 mg/kg, iv by LC/ESI-MS/MS analysis; type: ADME, organism-based; details: in vivo
[11] = Drug metabolism in bile duct-cannulated rat plasma assessed as oxidative dealkylation by measuring loss of isopropyl group at 10 mg/kg, iv by LC/ESI-MS/MS analysis; type: ADME, organism-based; details: in vivo
[12] = Drug metabolism in bile duct-cannulated rat urine assessed as oxidative dealkylation by measuring loss of isopropyl group at 10 mg/kg, iv by LC/ESI-MS/MS analysis; type: ADME, organism-based; details: in vivo
[13] = Drug metabolism in bile duct-cannulated rat bile assessed as conjugation at 10 mg/kg, iv by LC/ESI-MS/MS analysis; type: ADME, organism-based; details: in vivo
[14] = Drug metabolism in bile duct-cannulated rat bile assessed as oxidative dealkylation by measuring loss of isopropyl group at 10 mg/kg, iv by LC/ESI-MS/MS analysis; type: ADME, organism-based; details: in vivo
[15] = Drug metabolism in bile duct-cannulated rat urine assessed as conjugation at 10 mg/kg, iv by LC/ESI-MS/MS analysis; type: ADME, organism-based; details: in vivo
[16] = Drug metabolism in bile duct-cannulated rat plasma assessed as oxidation at 10 mg/kg, iv by LC/ESI-MS/MS analysis; type: ADME, organism-based; details: in vivo
[17] = Drug metabolism in bile duct-cannulated rat urine assessed as oxidative dealkylation by measuring amide cleavage at 10 mg/kg, iv by LC/ESI-MS/MS analysis; type: ADME, organism-based; details: in vivo
[18] = Drug metabolism in bile duct-cannulated rat urine assessed as glutathione conjugation at 10 mg/kg, iv by LC/ESI-MS/MS analysis; type: ADME, organism-based; details: in vivo
[19] = Drug metabolism in bile duct-cannulated rat urine assessed as oxidation at 10 mg/kg, iv by LC/ESI-MS/MS analysis; type: ADME, organism-based; details: in vivo
[20] = Drug metabolism in bile duct-cannulated rat bile assessed as oxidation at 10 mg/kg, iv by LC/ESI-MS/MS analysis; type: ADME, organism-based; details: in vivo
[21] = Drug metabolism in bile duct-cannulated rat plasma assessed as conjugation at 10 mg/kg, iv by LC/ESI-MS/MS analysis; type: ADME, organism-based; details: in vivo
[22] = Clearance in dog hepatocytes assessed per million cells; type: ADME, cell-based, Canis lupus familiaris, Hepatocyte
[23] = Clearance in human hepatocytes assessed per million cells; type: ADME, cell-based, Hepatocyte
[24] = AUC in dog at 10 mg/kg; type: ADME, organism-based, Canis lupus familiaris; details: in vivo
[25] = Mean residence time in rat; type: ADME, organism-based; details: in vivo
[26] = Plasma clearance in rat; type: ADME, organism-based
[27] = Half life in rat; type: ADME, organism-based; details: in vivo

Mitogen-activated protein kinase 3, sequence (P27361 whole entry): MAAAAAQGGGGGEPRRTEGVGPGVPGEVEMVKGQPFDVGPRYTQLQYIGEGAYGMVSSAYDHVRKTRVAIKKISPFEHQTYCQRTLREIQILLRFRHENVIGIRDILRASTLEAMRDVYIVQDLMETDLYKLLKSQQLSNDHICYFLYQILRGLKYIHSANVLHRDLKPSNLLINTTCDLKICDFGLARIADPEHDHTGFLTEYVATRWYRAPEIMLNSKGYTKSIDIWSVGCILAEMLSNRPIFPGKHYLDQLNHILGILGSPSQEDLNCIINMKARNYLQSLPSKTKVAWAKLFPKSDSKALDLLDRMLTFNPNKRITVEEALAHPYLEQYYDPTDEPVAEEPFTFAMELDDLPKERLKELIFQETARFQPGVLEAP
Mitogen-activated protein kinase 1, sequence (P28482 whole entry): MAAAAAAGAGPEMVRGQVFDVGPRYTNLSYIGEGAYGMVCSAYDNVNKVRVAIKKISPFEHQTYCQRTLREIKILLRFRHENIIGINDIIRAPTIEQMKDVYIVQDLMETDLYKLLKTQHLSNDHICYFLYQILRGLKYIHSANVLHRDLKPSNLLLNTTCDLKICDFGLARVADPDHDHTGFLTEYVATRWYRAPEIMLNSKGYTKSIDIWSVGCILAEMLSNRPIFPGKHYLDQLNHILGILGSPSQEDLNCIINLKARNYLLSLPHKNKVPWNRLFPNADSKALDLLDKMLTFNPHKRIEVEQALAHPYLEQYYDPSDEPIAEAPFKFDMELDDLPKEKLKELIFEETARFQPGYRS

Row | SMILES | IC50 [1] [nM] | IC50 [2] [nM] | IC50 (HT-29) [nM] | inhibition (hERG (KCNH2) [3]) [%] | inhibition (hERG (KCNH2) [4]) [%] | IC50 (COLO 205) [nM] | further results
1 | CS[C@@]1(C(=O)Nc2ccc3[nH]nc(-c4ccc(F)cc4)c3c2)CCN(CC(=O)N2CCN(c3ccc(-c4ncccn4)cc3F)CC2)C1 | 663 | 114 | – | – | – | – | –
2 | CCNc1nnc(-c2ccc(C3=CCN(C(=O)CN4CC[C@@](SC)(C(=O)Nc5ccc6[nH]nc(-c7ccc(F)cc7)c6c5)C4)CC3)cc2)o1 | 17 | 5 | 49 | 6 | -3 | 22 | –
3 | CS[C@@]1(C(=O)Nc2ccc3[nH]nc(-c4ccc(F)cc4)c3c2)CCN(CC(=O)N2CCC(c3ccc(-c4ncccn4)cc3)CC2)C1 | 43 | 23 | 245 | 12 | 22 | 76 | –
4 | CS[C@@]1(C(=O)Nc2ccc3[nH]nc(-c4ccc(F)cc4)c3c2)CCN(CC(=O)N2CC=C(c3nc(-c4ncccn4)cs3)CC2)C1 | 952 | 291 | – | 19 | 6 | – | –
5 | CS[C@]1(C(=O)Nc2ccc3[nH]nc(-c4ccc(OC(C)C)nc4)c3c2)CCN(CC(=O)N2CC=C(c3ccc(-c4ncn(C)n4)cc3)CC2)C1 | – | 729 | – | – | – | > 1000 | inhibition at 10 µM (hERG (KCNH2) [5]): 10%; inhibition at 1 µM (hERG (KCNH2) [6]): 6%
6 | COc1cc(-c2n[nH]c3ccc(NC(=O)[C@]4(SC)CCN(CC(=O)N5CC=C(c6ccc(-c7ncn(C)n7)cc6)CC5)C4)cc23)ccn1 | 7.9 | 1.7 | 80 | – | – | 10 | inhibition at 10 µM (hERG (KCNH2) [5]): 7.2%; inhibition at 1 µM (hERG (KCNH2) [6]): 0.8%
7 | CS[C@@]1(C(=O)Nc2ccc3[nH]nc(-c4ccc5c(c4)OCO5)c3c2)CCN(CC(=O)N2CC=C(c3ccc(-c4ncccn4)cc3)CC2)C1 | 45 | 13 | 77 | 16 | 19 | 29 | AUC [7]: 106 µM·h; IC50 (Cytochrome P450 3A4): 300 nM
8 | CS[C@@]1(C(=O)Nc2ccc3[nH]nc(-c4ccnc(OC(C)C)c4)c3c2)CCN(CC(=O)N2CC=C(c3ccc(-c4ncn(C)n4)cc3)CC2)C1 | 74 | 27 | 99 | 10 | 3 | 41 | –
9 | [3H]c1cc(OC(C)C)nc([3H])c1-c1n[nH]c2ccc(NC(=O)[C@]3(SC)CCN(CC(=O)N4CC=C(c5ccc(-c6ncn(C)n6)cc5)CC4)C3)cc12 | – | – | – | – | – | – | Drug metabolism [8]: Metabolite_Notdetected; Drug metabolism [9]: Metabolite_Detected; Drug metabolism [10]: Metabolite_Detected; Drug metabolism [11]: Metabolite_Detected; Drug metabolism [12]: Metabolite_Detected; Drug metabolism [13]: Metabolite_Detected; Drug metabolism [14]: Metabolite_Detected; Drug metabolism [15]: Metabolite_Detected; Drug metabolism [16]: Metabolite_Detected; Drug metabolism [17]: Metabolite_Detected; Drug metabolism [18]: Metabolite_Notdetected; Drug metabolism [19]: Metabolite_Detected; Drug metabolism [20]: Metabolite_Detected; Drug metabolism [21]: Metabolite_Detected
10 | CS[C@@]1(C(=O)Nc2ccc3[nH]nc(-c4ccc(OC(C)C)nc4)c3c2)CCN(CC(=O)N2CC=C(c3ccc(-c4ncccn4)cc3)CC2)C1 | 93 | 13 | 79 | 37 | 25 | 57 | –
11 | CC(C)Oc1ccc(-c2n[nH]c3ccc(NC(=O)[C@]4(S(C)(=O)=O)CCN(CC(=O)N5CC=C(c6ccc(-c7ncn(C)n7)cc6)CC5)C4)cc23)cn1 | 228 | 29 | 243 | – | – | 86 | inhibition at 10 µM (hERG (KCNH2) [5]): 5%; inhibition at 1 µM (hERG (KCNH2) [6]): 4%
12 | CS[C@@]1(C(=O)Nc2ccc3[nH]nc(-c4ccc(F)cc4)c3c2)CCN(CC(=O)N2CC=C(c3ccc(-c4ncccn4)cc3F)CC2)C1 | 135 | 25 | 209 | 32 | 11 | 83 | –
13 | COc1cc(-c2n[nH]c3ccc(NC(=O)[C@]4(SC)CCN(CC(=O)N5CC=C(c6ccc(-c7ncccn7)cc6)CC5)C4)cc23)ccn1 | 19 | 5 | 60 | 15 | 2 | 34 | inhibition at 10 µM (hERG (KCNH2) [5]): 19%; inhibition at 1 µM (hERG (KCNH2) [6]): 7%
14 | CCNc1ncc(-c2ccc(C3=CCN(C(=O)CN4CC[C@@](SC)(C(=O)Nc5ccc6[nH]nc(-c7ccnc(C)c7)c6c5)C4)CC3)cc2)s1 | 34 | 6 | 131 | -3 | -7 | 30 | –
15 | CS[C@@]1(C(=O)Nc2ccc3[nH]nc(-c4ccc(F)cc4)c3c2)CCN(CC(=O)N2CC=C(c3ncc(-c4ncccn4)s3)CC2)C1 | 207 | 36 | 543 | 10 | -5 | > 111 | –
16 | CS[C@@]1(C(=O)Nc2ccc3[nH]nc(-c4ccc(F)cc4)c3c2)CCN(CC(=O)N2CCN(c3ccc(-c4ncccn4)cc3)CC2)C1 | 25 | – | 87 | 47 | 3 | 47 | –
17 | CS[C@@]1(C(=O)Nc2ccc3[nH]nc(-c4ccc(F)cc4)c3c2)CCN(CC(=O)N2CC=C(c3ccc(-c4ncccn4)cc3)CC2)C1 | 41 | – | 118 | – | – | 45 | CLH [22]: 7 µL/min; CLH [23]: 18 µL/min; AUC [24]: 17 µM·h; AUC [7]: 25.9 to 26 µM·h
18 | O=C(Nc1ccc2[nH]nc(-c3ccncc3)c2c1)[C@@H]1CCN(CC(=O)N2CCN(c3ccc(-c4ncccn4)cc3)CC2)C1 | 8 | – | 59 | – | – | 16 | MRT [25]: 1.6 h; clearance [26]: 122 mL/min/kg; half-life [27]: 1.5 h
